The values that follow come from US20210205329A1 (The University of North Carolina at Chapel Hill, priority 2018, published 2021).

The test system of data set [1] is TLR3 signal. Briefly: Poly(I:C)-activated TLR3 signaling in RAW264.7 cells. Format: cell-based, mouse. The following applies: 1 μM; Poly-IC 25 μg/ml; 24 hrs.
Data set [2] deals with TLR7 signal in P rat NAc. Briefly: TLR7 signal in P rat NAc after systemic 3α,5α-THP (immunoblot). It is filed as in vivo. The conditions noted are these: 15 mg/kg I.P. How it is done:
Neuropsychopharmacology 40(8): 1549-1559; Aurelian L, et al. (2016). Transl Psychiatry 6: e815). Systemic administration of 3α,5α-THP (15 mg/kg, I.P.) to naïve female P rats inhibited the expression of TLR7 (40%), pIRF7 (40%), and TRAF6 (40%) in P rat NAc, with no effect on IRF3. Similar results were obtained in a separate study of the male P rats.
Next, potential sex differences were directly examined in baseline or 3α,5α-THP inhibition of MCP-1 and pIRF7 expression in female vs. male P rat NAc (FIG. 9). […] Systemic administration of 3α,5α-THP (15 mg/kg, I.P.) to naïve female and male P rats inhibited the expression of MCP-1 (40% in female rat NAc; 25% in male rat NAc). Likewise, 3α,5α-THP administration to naïve female and male P rats inhibited the expression of pIRF7 to the same extent, (55% in female rat NAc; 55% in male rat NAc).
For orientation: In western blotting, separated proteins are transferred to a membrane and probed.

In data set [3] the test system is MCP-1. Briefly: MCP-1 ELISA in VTA, amygdala and hypothalamus of female and male P rats. It is filed as in vivo, rat. The conditions noted are these: 15 mg/kg IP. The protocol: (Two-way ANOVA: F (1,28)=20.92, P<0.0001), and Hypothalamus [female (27%) and male (32%)] (Two-way ANOVA: F (1,28)=31.55, P<0.0001).
(§1) ELISA. Brain tissue micropunches were lysed with Cellyte MT and the extracts were assayed for protein content by the BCA procedure (Pierce) and for MCP-1 using the rat MCP-1 ELISA kit (Raybiotech—ERC-MCP-1-CL; Norcross, Ga., USA) or for fracktalkine using the rat fractalkine ELISA kit (Raybiotech—ERC-CX3CL1-CL; Norcross, Ga., USA) as per manufacturer's instructions.
To determine if the effects of 3α,5α-THP on MCP-1 were selective for P rat NAc, the effects of 3α,5α-THP administration in VTA, Amygdala and Hypothalamus of both female and male P rats was examined.

For data set [4], the system named is TLR2 signaling. Briefly: Pam3Cys-activated TLR2 signaling in RAW264.7 cells. Format: cell-based, mouse. The protocol: (§2) Because multiple TLRs signal through MD-2, […] and MyD-88, the specificity of the neurosteroid 3α,5α-THP on TLR2, TLRS and TLR7 signal activation was examined in RAW264.7 ceils (FIG. 7). Pam3Cys (10 μg/ml) activated TLR2 signaling, evidenced by increases in pCREB, pERK1/2, TRAF6 and pATF-2, that were sustained for 24 hrs and inhibited by 3α,5α-THP (1 μM) (50-60% compared to vehicle).

Data set [5] has as its system CX3CL1. As to the kind of experiment: CX3CL1 (fracktalkine) ELISA in P rat NAc. The following applies: 15 mg/kg IP, 45 min. Format: in vivo. The protocol:
Rats were administered VEH or 3α,5α-THP (15 mg/kg, IP) and sacrificed after 45 min. CX3CL1 was measured by ELISA (Raybiotech—ERC-CX3CL1-CL; Norcross, Ga., USA) as per manufacturer's instructions. (Two-way ANOVA: F (1,28)=13.63, P<0.001, Tukey's multiple comparisons test *P<0.05).
as §1
Activation of TLR4 signaling can result in the production of both pro-inflammatory and anti-inflammatory cytokines in P rat brain, but the factors that determine the outcome of TLR4 activation are unknown. […] 3α,5α-THP administration to naïve female and male P rats enhanced the expression of CX3CL1 by 90% in female rat NAc and 34% in male rat NAc. No sex difference in the effect of 3α,5α-THP was observed.

For data set [6], the system named is TLR7 signal. Briefly: Imiquimod-activated TLR7 signaling in RAW264.7 cells. Format: cell-based, mouse. The conditions noted are these: 1 μM; imiquimod 1 μg/ml; 24 hours. How it is done: as §2
Data set [7] in a line: 3α,5α-THP radioimmunoassay of RAW264.7 cell culture media (conversion of pregnenolone). Format: in vitro ADME, mouse. How it is done:
3α,5α-THP Radioimmunoassay (RIA), 3α,5α-THP concentrations in the RAW264.7 cell media were measured by radioimmunoassay as described elsewhere (VanDoren et al, 2000), modified for use with cell media (Cook et al, 2014), Briefly, 3α,5α-THP was extracted from ceil media three times with 3 ml of ethyl acetate and spiked with 1000 counts per minute of [^3H]3α,5α-THP for recovery. The extracts were purified using solid phase silica columns (Burdick and Jackson, Muskegon, Mich.) and used for the assay (run in duplicate) and for recovery measurement. Steroid levels in the samples were extrapolated from a concurrently run standard curve and corrected for their respective extraction efficiencies. The 3α,5α-THP antibody (1:500) was provided by the late Dr. Robert Purdy at Scripps Research Institute. […] The validity of the assay has been verified by gas chromatography mass spectrometry determinations (Porcu et al, 2010), 3α,5α-THP values are expressed as ng/ml of cell media.
Since pregnenolone is a precursor for 3α,5α-THP, the possibility that pregnenolone may have been converted in the RAW264.7 cells was considered by analysis of 3α,5α-THP levels in the cell culture media at the time of cell harvest, 3α,5α-THP was detected at less than 0.69±0.11 nmol/L, indicative of less than 0.1% conversion of 1.0 μM pregnenolone.

“And” between values parts separate entries of the source, which are not always exact repeats. Identical values can stand only once.

On to `CC(=O)[C@H]1CC[C@H]2[C@@H]3CC[C@H]4C[C@H](O)CC[C@]4(C)[C@H]3CC[C@]12C` [3α,5α-THP, (3α,5α)3-hydroxypregnan-20-one], for which the “effect of Poly(I:C) on IP-10 (CXCL10) expression” value in data set [1] is recorded as “not altered”. Further, the “inhibition of TRAF6” value in data set [2] (male P rats) was 45%. In data set [2] (naïve female P rats), the “effect on IRF3 in NAc” value is recorded as “no effect”; the “inhibition of TLR7 expression in NAc” value was found to be 40%; the “inhibition of TRAF6 expression in NAc” value worked out at 40%; the “inhibition of pIRF7 expression in NAc” value was 40% and 55%. The “inhibition of pIRF7 expression in NAc” value in data set [2] (naïve male P rats) is recorded as 55%. For the same compound, in data set [3] (female P rats), the “reduction of MCP-1 levels in Amygdala” value is 47%, the “reduction of MCP-1 levels in Hypothalamus” value stood at 27% and the “reduction of MCP-1 levels in VTA” value was 27%. Further, in data set [3] (male P rats), the “reduction of MCP-1 levels in Amygdala” value turned out to be 58%, the “reduction of MCP-1 levels in Hypothalamus” value came out at 32% and the “reduction of MCP-1 levels in VTA” value was found to be 21%. Moreover, the “effect of Pam3Cys on pCREB, pERK1/2, pATF2 and TRAF6” value in data set [4] (1 μM, Pam3Cys 10 μg/ml, harvested after 24 hrs) is “completely inhibited”. Besides, in data set [4] (Mus musculus, RAW264.7, Pam3Cys 10 μg/ml, 24 hrs, compared to vehicle, read-out: inhibition of Pam3Cys-induced increases in pCREB, pERK1/2, TRAF6 and pATF-2), the inhibition at 1 µM is 50 to 60%. For the same compound, the “enhancement of CX3CL1 expression in NAc” value in data set [5] (naïve female P rats) was found to be 90%. Moreover, the “enhancement of CX3CL1 expression in NAc” value in data set [5] (naïve male P rats) was found to be 34%. For the same compound, in data set [6], the “effect of imiquimod on pIRF7” value is reported as “completely inhibited”.

As to `CC(=O)[C@H]1CC[C@H]2[C@@H]3CC=C4C[C@@H](O)CC[C@]4(C)[C@H]3CC[C@]12C` [pregnenolone], the “conversion of pregnenolone to 3α,5α-THP” value in data set [7] (1.0 μM pregnenolone, RAW264.7 cells) was “less than 0.1%”. In data set [7] (RAW264.7 cells treated with 1.0 μM pregnenolone), the “3α,5α-THP level in the cell culture media at the time of cell harvest” value was “less than 0.69±0.11 nmol/L”.
